According to ChEMBL document CHEMBL5696441 (Nat Chem Biol, 2011):

What was measured:
[1] = target: Cyclin-dependent kinase 5 (Homo sapiens) (UniProt Q00535); assay: Inhibition of CDK5 (unknown origin) assessed as remaining activity at 1 uM by Kinome scan method relative to control
[2] = target: Receptor tyrosine-protein kinase erbB-2 (Homo sapiens) (UniProt P04626); assay: Inhibition of ERBB2 (unknown origin) assessed as remaining activity at 1 uM by Kinome scan method relative to control
[3] = target: G protein-coupled receptor kinase 4 (Homo sapiens) (UniProt P32298); assay: Inhibition of GRK4 (unknown origin) assessed as remaining activity at 1 uM by Kinome scan method relative to control
[4] = target: Serine/threonine-protein kinase Nek6 (Homo sapiens) (UniProt Q9HC98); assay: Inhibition of NEK6 (unknown origin) assessed as remaining activity at 1 uM by Kinome scan method relative to control
[5] = system: Phosphatidylinositol 4,5-bisphosphate 3-kinase catalytic subunit alpha isoform (Homo sapiens), P42336 [E545A]; assay: Inhibition of PIK3CA E545A mutant (unknown origin) assessed as remaining activity at 1 uM by Kinome scan method relative to control
Sequence of Phosphatidylinositol 4,5-bisphosphate 3-kinase catalytic subunit alpha isoform (Homo sapiens), P42336 [E545A] (P42336 whole entry E545A, canonical isoform): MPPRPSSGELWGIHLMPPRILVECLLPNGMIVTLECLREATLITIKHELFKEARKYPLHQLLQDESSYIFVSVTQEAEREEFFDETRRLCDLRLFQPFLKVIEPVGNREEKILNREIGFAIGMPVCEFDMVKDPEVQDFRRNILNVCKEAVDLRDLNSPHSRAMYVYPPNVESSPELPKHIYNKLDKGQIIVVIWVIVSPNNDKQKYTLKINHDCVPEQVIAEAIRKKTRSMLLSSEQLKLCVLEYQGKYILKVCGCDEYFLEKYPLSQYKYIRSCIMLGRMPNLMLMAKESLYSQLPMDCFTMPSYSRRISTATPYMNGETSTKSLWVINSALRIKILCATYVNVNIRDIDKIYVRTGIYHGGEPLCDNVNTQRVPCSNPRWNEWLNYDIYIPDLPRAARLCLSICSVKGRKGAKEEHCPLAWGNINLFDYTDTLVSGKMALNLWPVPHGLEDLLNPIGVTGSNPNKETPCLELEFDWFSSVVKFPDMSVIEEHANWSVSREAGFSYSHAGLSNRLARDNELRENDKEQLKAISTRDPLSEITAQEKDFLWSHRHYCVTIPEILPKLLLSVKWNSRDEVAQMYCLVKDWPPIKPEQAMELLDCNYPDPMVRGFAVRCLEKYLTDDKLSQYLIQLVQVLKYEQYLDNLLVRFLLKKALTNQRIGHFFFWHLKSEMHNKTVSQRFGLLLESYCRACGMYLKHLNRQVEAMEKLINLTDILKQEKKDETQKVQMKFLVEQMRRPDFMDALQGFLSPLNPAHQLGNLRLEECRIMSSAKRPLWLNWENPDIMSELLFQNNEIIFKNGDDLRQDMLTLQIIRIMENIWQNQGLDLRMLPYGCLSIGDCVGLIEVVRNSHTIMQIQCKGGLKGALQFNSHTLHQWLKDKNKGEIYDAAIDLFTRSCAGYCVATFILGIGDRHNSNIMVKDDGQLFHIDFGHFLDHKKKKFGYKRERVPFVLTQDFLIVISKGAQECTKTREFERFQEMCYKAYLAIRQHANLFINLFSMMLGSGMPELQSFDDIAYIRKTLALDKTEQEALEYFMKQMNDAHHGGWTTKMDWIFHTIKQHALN

[6] = target: Serine/threonine-protein kinase PRP4 homolog (Homo sapiens) (UniProt Q13523); assay: Inhibition of PRP4 (unknown origin) assessed as remaining activity at 1 uM by Kinome scan method relative to control
Sequence of Serine/threonine-protein kinase PRP4 homolog (Homo sapiens) (Q13523 whole entry, the tested form may be a part): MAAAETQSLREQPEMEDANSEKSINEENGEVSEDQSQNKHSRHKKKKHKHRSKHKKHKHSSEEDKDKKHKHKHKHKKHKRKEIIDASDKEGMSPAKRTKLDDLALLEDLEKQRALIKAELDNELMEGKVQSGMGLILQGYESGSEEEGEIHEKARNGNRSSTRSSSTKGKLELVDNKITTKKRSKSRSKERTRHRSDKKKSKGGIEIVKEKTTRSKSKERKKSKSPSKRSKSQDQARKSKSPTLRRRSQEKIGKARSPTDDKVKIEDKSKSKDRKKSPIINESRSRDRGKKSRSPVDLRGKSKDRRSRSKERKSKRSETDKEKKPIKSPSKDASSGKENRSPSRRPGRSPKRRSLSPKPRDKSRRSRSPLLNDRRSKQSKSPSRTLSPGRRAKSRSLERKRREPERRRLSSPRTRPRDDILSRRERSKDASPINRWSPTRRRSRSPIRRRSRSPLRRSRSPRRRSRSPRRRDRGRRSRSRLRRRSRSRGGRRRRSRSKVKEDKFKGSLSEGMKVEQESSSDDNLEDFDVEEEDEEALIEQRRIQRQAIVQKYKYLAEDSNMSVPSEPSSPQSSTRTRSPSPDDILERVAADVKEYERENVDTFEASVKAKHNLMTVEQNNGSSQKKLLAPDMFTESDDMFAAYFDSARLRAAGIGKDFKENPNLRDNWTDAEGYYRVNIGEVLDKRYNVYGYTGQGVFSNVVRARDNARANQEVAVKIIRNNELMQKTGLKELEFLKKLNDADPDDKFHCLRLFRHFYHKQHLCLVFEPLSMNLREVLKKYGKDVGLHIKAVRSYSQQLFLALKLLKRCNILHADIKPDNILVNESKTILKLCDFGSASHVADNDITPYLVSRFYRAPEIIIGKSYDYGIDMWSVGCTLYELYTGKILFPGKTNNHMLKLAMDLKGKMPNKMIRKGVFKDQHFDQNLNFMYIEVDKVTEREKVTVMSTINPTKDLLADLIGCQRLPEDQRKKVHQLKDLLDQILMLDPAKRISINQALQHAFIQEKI

[7] = target: Ribosomal protein S6 kinase alpha-5 (Homo sapiens) (UniProt O75582); assay: Inhibition of C-terminal kinase domain RPS6KA5 (unknown origin) assessed as remaining activity at 1 uM by Kinome scan method relative to control
[8] = target: Serine/threonine-protein kinase TAO1 (Homo sapiens) (UniProt Q7L7X3); assay: Inhibition of TAOK1 (unknown origin) assessed as remaining activity at 1 uM by Kinome scan method relative to control
[9] = target: Activin receptor type-1 (Homo sapiens) (UniProt Q04771); assay: Inhibition of human ACVR1 assessed as residual activity at 1 uM using RBER-GSK3(14-27) as substrate in presence of 33P-ATP by ProQinase assay relative to control
[10] = target: Serine/threonine-protein kinase MRCK alpha (Homo sapiens) (UniProt Q5VT25); assay: Inhibition of human CDC42BPA assessed as residual activity at 1 uM using RB-S6P as substrate in presence of 33P-ATP by ProQinase assay relative to control
[11] = target: Serine/threonine-protein kinase MRCK beta (Homo sapiens) (UniProt Q9Y5S2); assay: Inhibition of human CDC42BPB assessed as residual activity at 1 uM using RB-S6P as substrate in presence of 33P-ATP by ProQinase assay relative to control
[12] = target: Dual specificity protein kinase CLK1 (Homo sapiens) (UniProt P49759); assay: Inhibition of human CLK1 assessed as residual activity at 1 uM using autophos as substrate in presence of 33P-ATP by ProQinase assay relative to control
[13] = target: T1, Ephrin type-A receptor 1 (Homo sapiens) (UniProt P21709); assay: Inhibition of human EPHA1 assessed as residual activity at 1 uM using polyEY as substrate in presence of 33P-ATP by ProQinase assay relative to control
T1 sequence (whole entry): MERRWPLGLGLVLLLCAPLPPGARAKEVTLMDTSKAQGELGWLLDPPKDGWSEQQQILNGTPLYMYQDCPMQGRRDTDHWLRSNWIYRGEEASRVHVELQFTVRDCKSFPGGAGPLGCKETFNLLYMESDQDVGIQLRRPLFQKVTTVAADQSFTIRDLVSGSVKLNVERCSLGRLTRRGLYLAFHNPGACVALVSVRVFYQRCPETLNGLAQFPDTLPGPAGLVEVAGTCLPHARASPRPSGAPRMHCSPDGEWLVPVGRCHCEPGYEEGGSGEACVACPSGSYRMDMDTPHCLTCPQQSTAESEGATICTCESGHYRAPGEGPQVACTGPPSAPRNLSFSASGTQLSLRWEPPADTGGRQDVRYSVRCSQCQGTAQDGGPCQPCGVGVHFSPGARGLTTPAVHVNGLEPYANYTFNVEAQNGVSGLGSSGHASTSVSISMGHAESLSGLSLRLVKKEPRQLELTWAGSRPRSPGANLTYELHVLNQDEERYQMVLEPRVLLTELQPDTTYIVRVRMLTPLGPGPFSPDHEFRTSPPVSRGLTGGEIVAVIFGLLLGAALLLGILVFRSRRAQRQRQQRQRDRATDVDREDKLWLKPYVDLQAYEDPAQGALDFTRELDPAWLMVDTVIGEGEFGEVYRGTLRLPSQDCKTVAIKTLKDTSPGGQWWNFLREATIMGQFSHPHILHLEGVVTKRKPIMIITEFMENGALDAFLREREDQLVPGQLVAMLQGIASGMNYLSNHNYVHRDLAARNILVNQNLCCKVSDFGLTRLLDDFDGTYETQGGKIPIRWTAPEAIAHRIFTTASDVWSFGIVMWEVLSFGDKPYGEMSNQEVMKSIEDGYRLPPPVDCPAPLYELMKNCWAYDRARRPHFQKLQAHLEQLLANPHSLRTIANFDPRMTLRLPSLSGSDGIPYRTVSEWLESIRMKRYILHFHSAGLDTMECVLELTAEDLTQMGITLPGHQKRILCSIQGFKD

[14] = target: Homeodomain-interacting protein kinase 3 (Homo sapiens) (UniProt Q9H422); assay: Inhibition of human HIPK3 assessed as residual activity at 1 uM using RBER-CHKtide as substrate in presence of 33P-ATP by ProQinase assay relative to control
Sequence of Homeodomain-interacting protein kinase 3 (Homo sapiens) (Q9H422 whole entry, looked up): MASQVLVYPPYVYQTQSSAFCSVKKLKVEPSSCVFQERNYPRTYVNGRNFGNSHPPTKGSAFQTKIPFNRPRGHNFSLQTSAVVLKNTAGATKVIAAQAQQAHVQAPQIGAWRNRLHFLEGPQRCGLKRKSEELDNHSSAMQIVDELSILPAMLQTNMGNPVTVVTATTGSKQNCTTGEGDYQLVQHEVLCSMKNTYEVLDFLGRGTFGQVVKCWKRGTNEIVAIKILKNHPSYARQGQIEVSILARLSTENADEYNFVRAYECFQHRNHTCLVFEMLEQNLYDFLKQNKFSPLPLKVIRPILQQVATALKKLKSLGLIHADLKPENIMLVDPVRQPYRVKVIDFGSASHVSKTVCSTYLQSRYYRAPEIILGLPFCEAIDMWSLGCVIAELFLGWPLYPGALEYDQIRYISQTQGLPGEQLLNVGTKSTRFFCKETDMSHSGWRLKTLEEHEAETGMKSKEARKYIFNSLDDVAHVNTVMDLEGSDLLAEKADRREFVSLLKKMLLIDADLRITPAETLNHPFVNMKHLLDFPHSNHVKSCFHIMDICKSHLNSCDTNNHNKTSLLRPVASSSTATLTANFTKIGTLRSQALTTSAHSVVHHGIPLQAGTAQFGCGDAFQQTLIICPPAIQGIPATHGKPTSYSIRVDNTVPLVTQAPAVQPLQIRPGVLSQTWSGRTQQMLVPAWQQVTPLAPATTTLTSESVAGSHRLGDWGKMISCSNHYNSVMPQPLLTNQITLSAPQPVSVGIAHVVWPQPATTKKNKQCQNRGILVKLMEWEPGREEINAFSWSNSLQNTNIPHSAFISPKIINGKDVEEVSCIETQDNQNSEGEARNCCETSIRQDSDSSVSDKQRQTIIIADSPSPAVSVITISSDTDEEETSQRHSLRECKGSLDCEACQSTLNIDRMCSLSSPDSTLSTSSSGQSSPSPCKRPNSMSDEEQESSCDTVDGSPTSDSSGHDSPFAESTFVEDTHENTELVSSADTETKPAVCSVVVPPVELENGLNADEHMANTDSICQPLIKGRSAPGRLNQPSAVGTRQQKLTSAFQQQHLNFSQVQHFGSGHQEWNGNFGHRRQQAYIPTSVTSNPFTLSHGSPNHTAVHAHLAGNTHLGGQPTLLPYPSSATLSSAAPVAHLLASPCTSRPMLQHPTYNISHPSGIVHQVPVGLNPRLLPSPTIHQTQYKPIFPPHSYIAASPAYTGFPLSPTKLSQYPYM

[15] = target: Interleukin-1 receptor-associated kinase 4 (Homo sapiens) (UniProt Q9NWZ3); assay: Inhibition of human IRAK4 assessed as residual activity at 1 uM using RB-CTF as substrate in presence of 33P-ATP by ProQinase assay relative to control
Sequence of Interleukin-1 receptor-associated kinase 4 (Homo sapiens) (Q9NWZ3 whole entry): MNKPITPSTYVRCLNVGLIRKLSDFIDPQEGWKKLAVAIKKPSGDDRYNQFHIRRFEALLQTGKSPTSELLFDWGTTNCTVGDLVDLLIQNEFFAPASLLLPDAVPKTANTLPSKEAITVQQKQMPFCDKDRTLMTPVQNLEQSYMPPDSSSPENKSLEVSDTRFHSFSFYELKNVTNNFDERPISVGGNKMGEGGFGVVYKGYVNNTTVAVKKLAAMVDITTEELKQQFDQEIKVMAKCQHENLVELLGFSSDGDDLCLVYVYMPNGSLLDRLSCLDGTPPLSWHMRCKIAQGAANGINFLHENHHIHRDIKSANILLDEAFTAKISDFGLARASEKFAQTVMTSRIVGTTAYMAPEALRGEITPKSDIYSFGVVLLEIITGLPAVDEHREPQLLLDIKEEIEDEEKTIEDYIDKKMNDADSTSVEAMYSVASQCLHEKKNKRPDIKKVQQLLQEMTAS

[16] = target: Leukocyte tyrosine kinase receptor (Homo sapiens) (UniProt P29376); assay: Inhibition of human LTK assessed as residual activity at 1 uM using polyEY as substrate in presence of 33P-ATP by ProQinase assay relative to control
[17] = target: Serine/threonine-protein kinase 26 (Homo sapiens) (UniProt Q9P289); assay: Inhibition of human MST4 assessed as residual activity at 1 uM using RB-CTF as substrate in presence of 33P-ATP by ProQinase assay relative to control
Sequence of Serine/threonine-protein kinase 26 (Homo sapiens) (Q9P289 2-416 limits assumed): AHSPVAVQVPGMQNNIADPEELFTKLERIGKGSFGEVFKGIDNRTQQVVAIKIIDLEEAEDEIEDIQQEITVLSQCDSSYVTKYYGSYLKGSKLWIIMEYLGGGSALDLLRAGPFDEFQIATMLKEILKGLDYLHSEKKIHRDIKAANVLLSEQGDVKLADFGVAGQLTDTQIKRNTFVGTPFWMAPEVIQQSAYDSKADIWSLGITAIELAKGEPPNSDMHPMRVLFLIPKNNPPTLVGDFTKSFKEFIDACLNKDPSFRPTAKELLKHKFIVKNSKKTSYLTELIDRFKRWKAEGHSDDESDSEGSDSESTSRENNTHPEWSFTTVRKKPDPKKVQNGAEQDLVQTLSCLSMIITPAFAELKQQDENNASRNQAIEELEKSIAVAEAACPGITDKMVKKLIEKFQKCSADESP

[18] = target: Myosin light chain kinase, smooth muscle (Homo sapiens) (UniProt Q15746); assay: Inhibition of human MYLK assessed as residual activity at 1 uM using RB-S6P as substrate in presence of 33P-ATP by ProQinase assay relative to control
[19] = target: Serine/threonine-protein kinase D2 (Homo sapiens) (UniProt Q9BZL6); assay: Inhibition of human PRKD2 assessed as residual activity at 1 uM using RBER-CHKtide as substrate in presence of 33P-ATP by ProQinase assay relative to control
[20] = target: Ribosomal protein S6 kinase beta-1 (Homo sapiens) (UniProt P23443); assay: Inhibition of human S6K1 assessed as residual activity at 1 uM using RBER-GSK3(14-27) as substrate in presence of 33P-ATP by ProQinase assay relative to control
Sequence of Ribosomal protein S6 kinase beta-1 (Homo sapiens) (P23443 whole entry, looked up): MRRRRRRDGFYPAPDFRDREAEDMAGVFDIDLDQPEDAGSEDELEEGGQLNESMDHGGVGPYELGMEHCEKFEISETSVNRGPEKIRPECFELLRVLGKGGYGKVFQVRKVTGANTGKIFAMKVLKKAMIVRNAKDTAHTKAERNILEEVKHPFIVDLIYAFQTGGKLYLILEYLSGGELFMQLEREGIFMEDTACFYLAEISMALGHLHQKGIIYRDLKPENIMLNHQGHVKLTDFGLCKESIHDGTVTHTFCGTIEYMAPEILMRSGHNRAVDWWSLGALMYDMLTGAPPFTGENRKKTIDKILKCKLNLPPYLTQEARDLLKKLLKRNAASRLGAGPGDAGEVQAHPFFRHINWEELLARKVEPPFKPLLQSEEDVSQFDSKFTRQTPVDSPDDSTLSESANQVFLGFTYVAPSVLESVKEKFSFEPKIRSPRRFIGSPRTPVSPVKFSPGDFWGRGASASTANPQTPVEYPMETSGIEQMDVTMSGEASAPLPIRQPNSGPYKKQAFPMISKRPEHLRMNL

Sequence of Cyclin-dependent kinase 5 (Homo sapiens) (Q00535 whole entry, looked up): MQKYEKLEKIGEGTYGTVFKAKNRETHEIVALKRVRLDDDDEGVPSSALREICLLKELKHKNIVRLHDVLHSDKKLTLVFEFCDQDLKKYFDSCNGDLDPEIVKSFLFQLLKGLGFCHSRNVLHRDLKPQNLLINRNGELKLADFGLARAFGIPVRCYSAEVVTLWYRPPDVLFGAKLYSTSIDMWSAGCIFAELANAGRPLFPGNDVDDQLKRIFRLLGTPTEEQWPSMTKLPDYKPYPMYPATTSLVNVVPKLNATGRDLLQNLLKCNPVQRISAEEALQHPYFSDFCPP

## O=C1c2ccc(Nc3ccc(F)cc3F)cc2CCc2ccc(OC[C@H](O)CO)cc21 [Skepinone-L]
[1]
  Activity: 100%
[2]
  Activity: 100%
[3]
  Activity: 100%
[4]
  Activity: 100%
[5]
  Activity: 100%
[6]
  Activity: 100%
[7]
  Activity: 92%
[8]
  Activity: 100%
[9]
  Activity: 94%
[10]
  Activity: 98%
[11]
  Activity: 83%
[12]
  Activity: 106%
[13]
  Activity: 115%
[14]
  Activity: 91%
[15]
  Activity: 104%
[16]
  Activity: 97%
[17]
  Activity: 106%
[18]
  Activity: 78%
[19]
  Activity: 85%
[20]
  Activity: 85%
